Experimental findings from publication PMC8698759, “Gold(I) Complexes Bearing Alkylated 1,3,5-Triaza-7-phosphaadamantane Ligands as Thermoresponsive Anticancer Agents in Human Colon Cells” (Biomedicines, 2021) are described below.

Read-outs that look alike come from different tables or passages of the source.

One data set has as its system Caco-2/TC7 cells. Description: MTT cytotoxicity / antiproliferative assay on Caco-2/TC7 cells. The class given is cell-based, human. How it is done:
Human fibroblast cells were kindly provided by Dr. Julio Montoya (Unidad de Bioquímica, Facultad de Veterinaria, Universidad de Zaragoza, Spain). Caco-2 cells (passages 40–70) and fibroblasts (passages 10–30) were maintained in a humidified atmosphere of 5% CO2 at 37 °C. Cells were grown in Dulbecco’s Modified Eagles medium (DMEM) (Gibco Invitrogen, Paisley, UK) supplemented with 20% fetal bovine serum (FBS), 1% non-essential amino acids, 1% penicillin (1000 U/mL), 1% streptomycin (1000 μg/mL) and 1% amphotericin (250 U/mL). […] Caco-2 cells were sub-cultured on 25 cm^2 plastic flasks at a density of 1.2 × 10^4 cells/cm^2, while fibroblasts were sub-cultured on 75 cm^2 plastic flasks at a density of 1 × 10^4 cells/cm^2. Culture medium was replaced every 2 days.
(§1) Gold complex was diluted in dimethyl sulfoxide (DMSO) to a stock solution at 20 mM and then re-diluted to a working solution at 2.5 mM before diluting it in cell culture medium to treat cells at desired concentrations.
The influence of hyperthermia was studied by incubating cells at 40 °C for 1 h immediately after treating them with the gold complexes.
For cytotoxicity screening assays, Caco-2 cells were seeded in 96-well plates at a density of 4 × 10^3 cells/well. Culture medium was replaced with medium containing drug panel 24 h post-seeding and cells were incubated for 72 h. In fibroblasts, culture medium containing metal gold complexes was added 10 days post-seeding. Antiproliferative effect was measured with MTT assay as previously described by Mármol et al.. […] To determine the selectivity index (SI) the IC50 value in fibroblasts was divided by IC50 value in Caco-2, obtaining a ratio cancerous/normal cells toxicity.

The nature of data set [1]: Distribution coefficient (logD7.4), shake-flask n-octanol/buffered water. The class given is physicochemical. The settings on record: n-octanol/phosphate buffered saline pH 7.4, shake-flask. The procedure: The n-octanol-water coefficients of the phosphane derivatives were determined as previously reported using a shake-flask method. Briefly: Buffered-saline distilled water (100 mL, phosphate buffer [PO4^3−] = 10 mM, [NaCl] = 0.15 M, pH 7.4) and n-octanol (100 mL) were shaken together for 72 h to allow saturation of both phases. 1 mg of the complexes was dissolved in 5 mL of the aqueous phase and 5 mL of the organic phase were added, mixing for 10 min. The concentration of the complexes in the organic and aqueous phases were then determined using UV absorbance spectroscopy. LogD7.4 = log{[compound(organic phase)]/[compound(aqueous phase)]}.
The lipophilicity can be measured by the partition coefficient water/n-octanol, logD, by experimental procedures such as the shake flask method, which affords the distribution of the drug between an equal amount of n-octanol and water (or buffered aqueous solution).

For a further data set, the system named is Human fibroblast cells. As to the kind of experiment: MTT cytotoxicity assay on fibroblasts. The data set is classed as cell-based. The settings on record: for fibroblasts viability when treated at the IC50 value in Caco-2: 3a 2.5 µM, 3b 5.1 µM, 2a 12.3 µM, 2b 10.5 µM; for IC50: MTT, mean ± SE. How it is done: Human Caco-2 cell line (TC7 clone) was kindly provided by Dr. Edith Brot-Laroche (Université Pierre et Marie Curie-Paris 6, UMR S 872, Les Cordeliers, France). Human fibroblast cells were kindly provided by Dr. Julio Montoya (Unidad de Bioquímica, Facultad de Veterinaria, Universidad de Zaragoza, Spain). Caco-2 cells (passages 40–70) and fibroblasts (passages 10–30) were maintained in a humidified atmosphere of 5% CO2 at 37 °C. Cells were grown in Dulbecco’s Modified Eagles medium (DMEM) (Gibco Invitrogen, Paisley, UK) supplemented with 20% fetal bovine serum (FBS), 1% non-essential amino acids, 1% penicillin (1000 U/mL), 1% streptomycin (1000 μg/mL) and 1% amphotericin (250 U/mL). The cells were passaged enzymatically with 0.25% trypsin-1 mM EDTA. Caco-2 cells were sub-cultured on 25 cm^2 plastic flasks at a density of 1.2 × 10^4 cells/cm^2, while fibroblasts were sub-cultured on 75 cm^2 plastic flasks at a density of 1 × 10^4 cells/cm^2. Culture medium was replaced every 2 days.
as §1
For cytotoxicity screening assays, Caco-2 cells were seeded in 96-well plates at a density of 4 × 10^3 cells/well. Culture medium was replaced with medium containing drug panel 24 h post-seeding and cells were incubated for 72 h. In fibroblasts, culture medium containing metal gold complexes was added 10 days post-seeding. Antiproliferative effect was measured with MTT assay as previously described by Mármol et al.. Absorbance at 540/620 nm was measured with SPECTROstar Nano (BMG Labtech). To determine the selectivity index (SI) the IC50 value in fibroblasts was divided by IC50 value in Caco-2, obtaining a ratio cancerous/normal cells toxicity.

For a further data set, the target named is T1, Recombinant Human TrxR1 (Homo sapiens, UniProt Q16881).
T1 construct: purchased Sigma-Aldrich SRP6081
T1 sequence (Q16881 151-649 limits assumed): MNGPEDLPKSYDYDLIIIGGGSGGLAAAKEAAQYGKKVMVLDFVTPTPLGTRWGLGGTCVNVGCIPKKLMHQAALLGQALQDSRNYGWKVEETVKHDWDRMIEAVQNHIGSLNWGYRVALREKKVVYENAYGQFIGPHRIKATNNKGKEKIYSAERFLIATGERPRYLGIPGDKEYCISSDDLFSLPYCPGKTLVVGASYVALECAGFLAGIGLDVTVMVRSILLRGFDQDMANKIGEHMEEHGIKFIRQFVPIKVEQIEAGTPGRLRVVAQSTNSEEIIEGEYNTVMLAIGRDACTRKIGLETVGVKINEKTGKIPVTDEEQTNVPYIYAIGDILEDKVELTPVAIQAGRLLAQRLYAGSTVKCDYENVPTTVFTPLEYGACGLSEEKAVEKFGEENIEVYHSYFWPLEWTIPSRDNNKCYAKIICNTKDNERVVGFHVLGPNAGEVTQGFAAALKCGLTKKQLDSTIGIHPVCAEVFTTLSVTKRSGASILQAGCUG
As to the kind of experiment: Thioredoxin reductase 1 (TrxR1) activity assay. To be noted: auranofin 25 µM; 3a and 3b at IC50 concentrations. The data set is classed as biochemical. How it is done: Recombinant Human TrxR1 (Sigma-Aldrich SRP6081, St. Louis, MO, USA) was incubated in a 96 well plate with different concentration of Au complex previously dissolved in 25 μL of PBS at pH 7.4. The cell solution was incubated in shake motion for 5 min at 37 °C. After incubation time, procedure in Thioredoxin Reductase Assay Kit (Sigma-Aldrich CS0170, St. Louis, MO, USA) was followed. Finally, reaction was started by adding 6 μL DNTB and absorbance at 405 nm was recorded every 30 s for 22 min as a measure of Thioredoxin Reductase Activity.

[2] abbreviates: 72 h, MTT, 37 °C, mean ± SE, read-out: IC50 Caco-2/TC7 37 °C.
Where [3] appears, read: read-out: IC50 Caco-2/TC7 40 °C, 72 h, MTT, 1 h at 40 °C immediately after treatment (hyperthermia), mean ± SE.
[4] abbreviates: Homo sapiens, Caco2/TC7, read-out: IC50 Caco-2/TC7 40 °C.

On to `FC(F)(F)C(F)(F)C(F)(F)C(F)(F)C(F)(F)C(F)(F)CC[N+]12CN3CN(C1)C[PH]([Au][Cl])(C3)C2.O=S(=O)([O-])C(F)(F)F` [Complex 1b, [AuCl(PTA-CH2CH2(CF2)5CF3)]TfO], for which the IC50 in the data set with Caco-2/TC7 cells (setting [2]) stood at 5.98 ± 1.8 µM; in the data set on Caco-2/TC7 cells (setting [3]) it was 4.46 ± 0.79 µM. Besides, the logD7.4 in data set [1] was found to be 0.63.

For `CCCCCCCC[N+]12CN3CN(CP(C3)C1)C2` [La, [PTA-CH2(CH2)6CH3]I], the IC50 in the data set on Caco-2/TC7 cells was 49.32 ± 0.02 µM; in the data set on Caco-2/TC7 cells (setting [4]), 47.1 ± 0.92 µM.

As to `FC(F)(F)C(F)(F)C(F)(F)C(F)(F)C(F)(F)C(F)(F)CC[N+]12CN3CN(CP(C3)C1)C2` [Lb, [PTA-CH2CH2(CF2)5CF3]TfO], the IC50 with Caco-2/TC7 cells stood at 27.2 ± 7.56 µM; with Caco-2/TC7 cells (setting [4]) it was 24 ± 6.6 µM.

Consider `CCCCCCCC[N+]12CN3CN(C1)C[P+]([Au-2]([Cl])[P+]14CN5CN(C[N+](CCCCCCCC)(C5)C1)C4)(C3)C2.[I-].[I-]` [Complex 2a, [AuCl(PTA-CH2(CH2)6CH3)2]I2], for which the IC50 in the data set with Caco-2/TC7 cells (setting [2]) turned out to be 12.3 ± 1.18 µM; in the data set with Caco-2/TC7 cells (setting [3]), 10.4 ± 0.51 µM; in the data set with Human fibroblast cells, 13.5 ± 0.97 µM. Moreover, in data set [1], the logD7.4 was −0.12. Moreover, in the data set on Human fibroblast cells, the “fibroblasts viability when treated at the IC50 value in Caco-2” value was “nearly two-fold reduction in the viability of fibroblasts”. Moreover, in the data set on Human fibroblast cells (IC50 fibroblasts/IC50 Caco-2), the “Selectivity Index (SI)” value is on record as 1.09.

As to `CC(=O)OC[C@H]1O[C@@H]([S-])[C@H](OC(C)=O)[C@@H](OC(C)=O)[C@@H]1OC(C)=O.CCP(CC)CC.[Au+]` [auranofin, reference compound], the “TrxR1 activity related to control” value at Recombinant Human TrxR1 is “Inhibitory effect”.

As for `FC(F)(F)C(F)(F)C(F)(F)C(F)(F)C(F)(F)C(F)(F)CC[N+]12CN3CN(C1)C[P+]([Au-2]([Cl])[P+]14CN5CN(C[N+](CCC(F)(F)C(F)(F)C(F)(F)C(F)(F)C(F)(F)C(F)(F)F)(C5)C1)C4)(C3)C2.O=S(=O)([O-])C(F)(F)F.O=S(=O)([O-])C(F)(F)F` [Complex 2b, [AuCl(PTA-CH2CH2(CF2)5CF3)2](TfO)2], the IC50 came to 10.7 ± 0.6 µM with Caco-2/TC7 cells (setting [2]), 9 ± 0.39 µM in the data set with Caco-2/TC7 cells (setting [3]) and 11.6 ± 1.05 µM in the data set on Human fibroblast cells. This compound also displayed a logD7.4 in data set [1] of 0.82. In the data set on Human fibroblast cells, the “fibroblasts viability when treated at the IC50 value in Caco-2” value was “nearly two-fold reduction in the viability of fibroblasts”.
